System: DIO mice (C57BL/6NTac, high fat diet)
Test: body weight study in diet-induced obese (DIO) mice, 56 days
Type: in vivo, mouse
Details: DA 92.4 mg/kg, CQL 50 mg/kg, gavage BID
Description: This example provides results of a study of DA plus another compound (CQL) on body weight in diet-induced (DIO) mice. Adult C57BL/6NTac mice were fed with a high fat diet (60%). Vehicle group (N=15) were treated with distilled water by gavage BID, CQL (N=15) were treated at 50 mg/kg by gavage BID, and DA (N=15) at a dose of 92.4 mg/kg by gavage BID. The study period was for 56 days+2-3 days testing period afterward. […] Metabolic biomarkers were measured on days 28 and 56. Cytokine analysis on Days 28 and 56. Serum levels of GLP-1, GLP-2, and CCK at 1 h after dosing on Days 1 and 56, and at 2 h after dosing on Day 7 (dosing (>6 h fasting prior to dosing until after blood collection); and serum level of PPY on Day 56.

SMILES: Oc1c(I)cc(Cl)c2cccnc12 [CQL]
- serum HbA1c level at Day 28: significantly reduced
- serum HbA1c level at Day 56: considerably increased
- daily water intake at Day 28 (compared to vehicle): significantly decreased

— patent publication US20220193013A1, “Pharmaceutical Composition for Treatment or Prevention of Multiple Inflammatory Disorders” (priority 2020, published 2022)
